Columns and labels:
[1] = biological target: 5-hydroxytryptamine receptor 2A (Homo sapiens) (UniProt P28223); assay: Agonist activity at 5HT2A receptor (unknown origin) expressed in HEK293 cells assessed as maximal effect by FLIPR calcium flux assay relative to control; assay type: functional, cell-based; conditions: filed as agonist
Mus musculus = assay: Antipsychotic activity in sc dosed C57BL/6 mouse assessed as DOI-induced head twitching observed for 20 mins; assay type: functional, organism-based; conditions: dose 1-100 mg/kg

Sequence of 5-hydroxytryptamine receptor 2A (Homo sapiens) (P28223 whole entry): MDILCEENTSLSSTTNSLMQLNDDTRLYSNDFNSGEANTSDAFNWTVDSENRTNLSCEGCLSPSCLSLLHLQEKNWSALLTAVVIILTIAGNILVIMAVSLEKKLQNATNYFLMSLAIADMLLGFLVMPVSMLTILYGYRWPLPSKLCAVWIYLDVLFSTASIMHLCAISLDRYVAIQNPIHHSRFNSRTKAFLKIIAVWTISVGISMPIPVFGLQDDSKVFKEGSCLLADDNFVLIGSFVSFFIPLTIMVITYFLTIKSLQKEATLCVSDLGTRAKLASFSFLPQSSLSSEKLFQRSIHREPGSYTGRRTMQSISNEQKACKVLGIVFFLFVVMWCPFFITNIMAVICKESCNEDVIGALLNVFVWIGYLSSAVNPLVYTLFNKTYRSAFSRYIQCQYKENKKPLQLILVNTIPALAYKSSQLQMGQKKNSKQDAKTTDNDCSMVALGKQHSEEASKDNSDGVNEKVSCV

CCN(C)CCc1c[nH]c2ccc(F)cc12
Emax [1]: 87.6% | Activity (Mus musculus): Dose-Dependent Effect

CN(C)CCc1c[nH]c2ccccc12
Emax [1]: 93.4%

CCCN(CC)CCc1c[nH]c2ccc(F)cc12
Emax [1]: 104% | Activity (Mus musculus): Dose-Dependent Effect

Source: ChEMBL document CHEMBL4840380, “The Psychedelic Renaissance: Addressing Potential Adverse Effects in a Therapeutic Setting” (ACS Med Chem Lett, 2021)
